In ChEMBL document CHEMBL1126772, “Activated ketone based inhibitors of human renin” (J Med Chem, 1993):
Square brackets hold non-standard residues; d marks the D form. Peptide text beside a SMILES is read from it. * marks the point of attachment. ξ: configuration not given here. ξCha = NC(CC1CCCCC1)C(=O)O; Boc = CC(C)(C)OC(=O)*; CF3 = FC(F)(F)*

molecular target: T1, Cathepsin D (Bos taurus, UniProt P80209); test: In vitro inhibitory activity against bovine cathepsin D; details: read-out: I50
T1 sequence (P80209 whole entry): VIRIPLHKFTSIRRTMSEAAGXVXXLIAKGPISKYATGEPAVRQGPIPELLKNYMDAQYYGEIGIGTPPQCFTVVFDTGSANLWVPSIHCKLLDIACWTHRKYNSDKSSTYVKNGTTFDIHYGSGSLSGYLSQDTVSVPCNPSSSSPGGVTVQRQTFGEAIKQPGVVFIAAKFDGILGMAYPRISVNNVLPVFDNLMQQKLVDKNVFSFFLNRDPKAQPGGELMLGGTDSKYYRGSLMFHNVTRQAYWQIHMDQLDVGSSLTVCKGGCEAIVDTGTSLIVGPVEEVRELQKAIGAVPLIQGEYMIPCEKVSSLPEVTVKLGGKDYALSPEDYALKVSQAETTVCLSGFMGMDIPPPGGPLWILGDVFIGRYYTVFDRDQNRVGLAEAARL

IC50 [nM] | Compound
1300 | CCOC(=O)C(=O)C(CC1CCCCC1)NC(=O)[C@H](CC(C)C)NC(=O)[C@H](Cc1ccccc1)NC(=O)OC(C)(C)C (stereo partly drawn)

molecular target: Pepsin A (Sus scrofa, UniProt P00791); test: In vitro inhibitory activity against aspartic proteinases pepsin from porcine; details: read-out: I50
Sequence (P00791 whole entry): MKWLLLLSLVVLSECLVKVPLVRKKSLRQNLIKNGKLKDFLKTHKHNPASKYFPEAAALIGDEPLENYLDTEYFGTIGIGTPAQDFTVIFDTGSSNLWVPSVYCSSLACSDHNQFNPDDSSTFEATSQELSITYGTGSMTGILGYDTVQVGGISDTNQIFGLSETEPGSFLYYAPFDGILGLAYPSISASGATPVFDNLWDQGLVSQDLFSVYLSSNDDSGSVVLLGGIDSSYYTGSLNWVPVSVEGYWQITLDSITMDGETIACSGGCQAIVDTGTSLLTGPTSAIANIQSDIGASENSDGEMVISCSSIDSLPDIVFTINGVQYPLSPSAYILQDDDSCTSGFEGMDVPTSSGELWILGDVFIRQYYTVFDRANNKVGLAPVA

IC50 [nM] | Compound
2700 | CCOC(=O)C(=O)C(CC1CCCCC1)NC(=O)[C@H](CC(C)C)NC(=O)[C@H](Cc1ccccc1)NC(=O)OC(C)(C)C (stereo partly drawn)

molecular target: T2, Renin (Homo sapiens, UniProt P00797); test: In vitro inhibitory potency against human kidney renin.; type: tissue-based; details: read-out: I50
T2 sequence (P00797 whole entry): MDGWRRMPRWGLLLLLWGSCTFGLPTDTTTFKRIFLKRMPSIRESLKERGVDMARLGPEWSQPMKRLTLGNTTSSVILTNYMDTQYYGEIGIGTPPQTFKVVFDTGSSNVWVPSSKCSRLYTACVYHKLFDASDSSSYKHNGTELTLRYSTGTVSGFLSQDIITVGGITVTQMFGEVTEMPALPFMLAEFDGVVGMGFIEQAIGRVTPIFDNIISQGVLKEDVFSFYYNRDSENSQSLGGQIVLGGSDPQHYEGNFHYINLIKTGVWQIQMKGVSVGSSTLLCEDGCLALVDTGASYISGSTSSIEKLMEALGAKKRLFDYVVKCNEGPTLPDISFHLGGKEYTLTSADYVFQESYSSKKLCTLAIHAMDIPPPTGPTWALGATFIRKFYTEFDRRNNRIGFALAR

IC50 [nM] | Compound
15 | CCOC(=O)C(=O)C(CC1CCCCC1)NC(=O)[C@H](CC(C)C)NC(=O)[C@H](Cc1ccccc1)NC(=O)OC(C)(C)C (stereo partly drawn)
110 | CCOC(=O)[C@@H](O)[C@H](CC1CCCCC1)NC(=O)[C@H](CC(C)C)NC(=O)[C@H](Cc1ccccc1)NC(=O)OC(C)(C)C
5.3 | CCOC(=O)[C@H](O)[C@H](CC1CCCCC1)NC(=O)[C@H](CC(C)C)NC(=O)[C@H](Cc1ccccc1)NC(=O)OC(C)(C)C
52 | CCCC(=O)C(=O)[C@H](CC1CCCCC1)NC(=O)[C@H](CC(C)C)NC(=O)[C@H](Cc1ccccc1)NC(=O)OC(C)(C)C
23 | CCCC(=O)[C@H](O)[C@H](CC1CCCCC1)NC(=O)[C@H](CC(C)C)NC(=O)[C@H](Cc1ccccc1)NC(=O)OC(C)(C)C
3200 | CC(C)C[C@H](NC(=O)[C@H](Cc1ccccc1)NC(=O)OC(C)(C)C)C(=O)N[C@@H](CC1CCCCC1)C(C)O (stereo partly drawn)

The next lines start with the molecule.

Compound | IC50 [nM]
CCOC(=O)[C@H](O)[C@H](CC1CCCCC1)NC(=O)[C@H](CC(C)C)NC(=O)[C@@H](CC(=O)N1CCOCC1)Cc1ccccc1 | 4.7
CCOC(=O)C(=O)C(CC1CCCCC1)NC(=O)[C@H](CC(C)C)NC(=O)OCc1ccccc1 (stereo partly drawn) | 52000
CCOC(=O)C(=O)[C@H](CC1CCCCC1)NC(=O)[C@H](CC(C)C)NC(=O)[C@@H](CC(=O)N1CCOCC1)Cc1ccccc1 | 4.1
CCCC(=O)[C@H](O)[C@H](CC1CCCCC1)NC(=O)[C@H](Cc1c[nH]cn1)NC(=O)OC(C)(C)C | 420000
CCCC(=O)[C@H](O)[C@H](CC1CCCCC1)NC(=O)[C@H](CC(C)C)NC(=O)[C@H](Cc1ccccc1)NC(=O)C1CCCC1 | 14
CC(C)C[C@H](NC(=O)[C@H](Cc1ccccc1)NC(=O)OC(C)(C)C)C(=O)NC(CC1CCCCC1)C(=O)C(F)(F)F (stereo partly drawn) (Boc-Phe-Leu-[ξCha]-CF3) | 250
CCCC(=O)C(=O)[C@H](CC1CCCCC1)NC(=O)[C@H](CC(C)C)NC(=O)[C@H](Cc1ccccc1)NC(=O)C1CCCC1 | 28
CC(C)C[C@H](NC(=O)[C@H](Cc1ccccc1)NC(=O)OC(C)(C)C)C(=O)NC(CC1CCCCC1)C(=O)C(=O)O (stereo partly drawn) | 64000
CC(C)C[C@H](NC(=O)[C@H](Cc1ccccc1)NC(=O)OC(C)(C)C)C(=O)NC(CC1CCCCC1)C(O)C(F)(F)F (stereo partly drawn) | 4000
CCCC1([C@H](O)[C@H](CC2CCCCC2)NC(=O)[C@H](CC(C)C)NC(=O)[C@H](Cc2ccccc2)NC(=O)OC(C)(C)C)SCCCS1 | 2200
